Measurements reported in patent publication US20100330136A1, “USE OF CATIONIC SURFACTANTS FOR THE PROTECTION AGANST TOOTH EROSION” (priority 2008, published 2010).

What was measured:
[1] = system: S. oralis; experiment: Antimicrobial activity on the biofilm (Zurich Biofilm Model); assay type: cell-based, Streptococcus oralis; settings: 0.5% LAE; 6 exposures of 1 minute in two days, evaluated 16 h after last exposure; control 9.0
Experimental: (§1) The biofilm model is a reliable tool to predict the in vivo efficacy of antimicrobials, and de- and remineralization of enamel exposed to biofilms in vitro. The experiments were performed with the Zurich Biofilm Model. Biofilms are formed either on hydroxyapatite (HA) or bovine enamel disks that have preconditioned in pooled, unstimulated saliva. Biofilms are formed in 24-well cell culture dishes incubated anaerobically at 37° C. The detailed description to the preparation of this model was published by Guggenheim et al., 2001, J. Dent. Res. 80 (1) 363-370. The microbial composition of this biofilm was constituted by five bacterial species and a yeast. More specifically, they are as follows: Streptococcus oralis, Streptococcus sobrinus, Actinomyces naeslundii, Veillonella dispar and Fusobacterium nucleatum and the yeast studied was Candida albicans. The bacteria chosen for incorporation into this biofilm model were five species encountered in supragingival plaque.
(§2) Most of the biofilm models are based on a continuous flow culture system which means that biofilms are subjected to shear or detachment forces. In contrast, the biofilm model used in these experiments was based on a batch culture system that was subjected only intermittently to such forces in the course of dip-washing or gentle swirling. […]
(§3) The results of the following table were expressed as log10 of CFU: […]

[2] = system: Penicillium funiculosum CECT 2914; settings: Fungi; cited from earlier work
[3] = system: Arthrobacter oxydans ATCC 8010; settings: Gram + bacteria; cited from earlier work
[4] = system: Mycobacterium phlei ATCC 41423; settings: listed under Gram − bacteria; cited from earlier work
[5] = system: Staphylococcus aureus ATCC 6538; settings: Gram + bacteria; cited from earlier work
[6] = system: Alcaligenes faecalis ATCC 8750; settings: Gram − bacteria; cited from earlier work
[7] = system: Leuconostoc mesenteroides CETC 912; settings: Gram + bacteria; cited from earlier work
[8] = system: Aspergillus niger ATCC14604; settings: Fungi; cited from earlier work
[9] = Tooth coating effect: surface energy from contact angles of sessile drops (Glantz method); assay type: physicochemical; settings: for Surface Energy: enamel without LAE ca 23 dyn/cm
Excerpt: The tooth coating effect by LAE was validated by the methods described by Glantz PO (1981. “Adhesion in the oral cavity” In Fundamentals and application of surface interactions in the oral cavity (ed. S. A. Leach), pp 49-64. Information Retrieval Ltd. London). The method measures contact angles of sessile drops from liquids with a range of polarities to determine the polar component of the surface energy (gamma p) and dispersive component on teeth coated with LAE. Without LAE the surface energy was 23 dyn/cm. […] In the presence of LAE the surface energy was reduced to a lowest level of 11.5 dyn/cm. This coating provides a shielding effect on teeth against erosion caused by acids from food and beverages.
The surface energy of enamel is ca 23 dyn/cm. This surface energy is reduced by the presence of LAE to the following values: […]

[10] = system: Escherichia coli ATCC 8739; settings: Gram − bacteria; cited from earlier work
[11] = system: Bordetella bronchiseptica ATCC 4617; settings: Gram − bacteria; cited from earlier work
[12] = system: Saccharomyces cerevisiae ATCC 9763; settings: Yeast; cited from earlier work
[13] = system: Pseudomonas aeruginosa ATCC 9027; settings: Gram − bacteria; cited from earlier work
[14] = system: Escherichia coli 0157H7; settings: Gram − bacteria; cited from earlier work
[15] = system: Citrobacter freundii ATCC 22636; settings: Gram − bacteria; cited from earlier work
[16] = system: Serratia marcenses CECT 274; settings: Gram − bacteria; cited from earlier work
[17] = system: Candida albicans ATCC 10231; settings: Yeast; cited from earlier work
[18] = system: Penicillium chrysogenum CECT 2802; settings: Fungi; cited from earlier work
[19] = system: Bacillus cereus var mycoide ATCC 11778; settings: Gram + bacteria; cited from earlier work
[20] = system: S. sobrinus; experiment: Antimicrobial activity on the biofilm (Zurich Biofilm Model); assay type: cell-based, Streptococcus sobrinus; settings: 0.5% LAE; 6 exposures of 1 minute in two days, evaluated 16 h after last exposure; control 8.6
Experimental: as §1, §2, §3

[21] = system: Aureobasidium pullulans ATCC 9348; settings: Fungi; cited from earlier work
[22] = system: A. naeslundii; experiment: Antimicrobial activity on the biofilm (Zurich Biofilm Model); assay type: cell-based, Actinomyces naeslundii; settings: 0.5% LAE; 6 exposures of 1 minute in two days, evaluated 16 h after last exposure; control 8.3
Experimental: as §1, §2, §3

[23] = system: V. dispar; experiment: as above; assay type: cell-based, Veillonella dispar; settings: 0.5% LAE; 6 exposures of 1 minute in two days, evaluated 16 h after last exposure; control 8.1
Experimental: as §1, §2, §3

[24] = system: Gliocadium virens ATCC 4645; settings: Fungi; cited from earlier work
[25] = system: Klebsiella pneumoniae var pneumoniae CECT 178; settings: Gram − bacteria; cited from earlier work
[26] = system: Listeria monocytogenes ATCC 7644; settings: Gram + bacteria; cited from earlier work
[27] = system: Bacillus subtilis ATCC 6633; settings: Gram + bacteria; cited from earlier work
[28] = system: Streptococcus mutans ATCC 25175; settings: Gram + bacteria; cited from earlier work
[29] = system: Clostridium perfringens ATCC 77454; settings: Gram + bacteria; cited from earlier work
[30] = Effect of LAE on acids generated from sugar rinses: pH on tooth plaque interfaces; assay type: in vivo, Humans; settings: for intraoral pH after 10% sucrose rinse: 0.16% LAE, humans
Excerpt: It has been established, that beverages and food containing sugars promote tooth erosion. The American Dental Association (ADA) food and nutrition programs recommend a procedure for evaluating pH in the mouth after ingestion of food and beverages. This is summarized in the FDA guidelines published in Federal Register 43433, vol 61, No. 165, 1996. The procedure involved measuring pH on tooth plaque interfaces after giving the subjects (6 subjects per group) 10% sucrose rinse in the presence or absence of treatment with 0.16% LAE versus placebo solution containing flavor, sweetener, plasticizer (components of chewing gum) to assess their acid neutralizing effects. […] Whereas rinsing with LAE maintains a pH of 5.4±0.3 which is above the danger zone maintained for 3 and 7 days of continuous monitoring. This validates that LAE not only coats the surface of teeth but maintains a healthy pH around teeth to prevent erosion.
Another effect produced by LAE is the pH neutralization. Upon hydrolysis LAE forms arginine which is a natural pH neutralizer in human saliva. The following table reports the intraoral pH with LAE versus a placebo from 0 to 7 days after 10% sucrose rinse: […]

[31] = cited from earlier work
[32] = system: F. nucleatum; experiment: Antimicrobial activity on the biofilm (Zurich Biofilm Model); assay type: cell-based, Fusobacterium nucleatum; settings: 0.5% LAE; 6 exposures of 1 minute in two days, evaluated 16 h after last exposure; control 5.1
Experimental: as §1, §2, §3

[33] = system: microorganisms in biofilm (five bacterial species and a yeast); experiment: Re-growth of biofilms after LAE exposure (Zurich Biofilm Model); assay type: cell-based; settings: 1% LAE
Experimental: as §1
Most of the biofilm models are based on a continuous flow culture system which means that biofilms are subjected to shear or detachment forces. In contrast, the biofilm model used in these experiments was based on a batch culture system that was subjected only intermittently to such forces in the course of dip-washing or gentle swirling. Thus, this biofilm model allows for controlled substance exposure times resembling those encountered during mouth rinsing.
The biofilms were exposed to LAE only 6 times during 1 minute in two subsequent days. The evaluation of the LAE effects was studied 16 h after the last exposure.
This experiment compared the re-growth of microorganisms in a control biofilm against a biofilm exposed to LAE. The content of microorganisms in each biofilm was studied along the time. For each point of analysis the growth of microorganisms was studied before and after a dip in a saline solution for control biofilms and in LAE for the other biofilms after each feeding.
The results are expressed as log10 of CFU: […]

[34] = system: C. albicans; experiment: Antimicrobial activity on the biofilm (Zurich Biofilm Model); assay type: cell-based, Candida albicans; settings: 0.5% LAE; 6 exposures of 1 minute in two days, evaluated 16 h after last exposure; control 5.1
Experimental: as §1, §2, §3

[35] = rats; cited from earlier work
[36] = system: Salmonella typhimurium ATCC16028; settings: Gram − bacteria; cited from earlier work
[37] = system: Chaetonium globosum ATCC 6205; settings: Fungi; cited from earlier work
[38] = system: Proteus mirabilis CECT 170; settings: Gram − bacteria; cited from earlier work
[39] = system: Lactobacillus delbrueckii ssp lactis CECT 372; settings: Gram + bacteria; cited from earlier work
[40] = system: Rhodotorula rubra CECT 1158; settings: Yeast; cited from earlier work
[41] = system: Micrococcus luteus ATCC 9631; settings: Gram + bacteria; cited from earlier work
[42] = system: Enterobacter aerogenes CECT 689; settings: Gram − bacteria; cited from earlier work

## CCCCCCCCCCCC(=O)N[C@@H](CCCN=C(N)N)C(=O)OCC.Cl [LAE, ethyl ester of the lauramide of the arginine monohydrochloride]
[1]
  log10 of CFU in biofilm: 6.1 log10 of CFU
[2]
  M.I.C.: 16 ppm
[3]
  M.I.C.: 64 ppm
[4]
  M.I.C.: 2 ppm
[5]
  M.I.C.: 32 ppm
[6]
  M.I.C.: 64 ppm
[7]
  M.I.C.: 32 ppm
[8]
  M.I.C.: 32 ppm
[9]; [LAE] 0.00001 %
  Surface Energy: 21.5 dyn/cm
[9]; [LAE] 0.001 %
  Surface Energy: 16.5 dyn/cm
[9]; [LAE] 0.01 %
  Surface Energy: 11.5 dyn/cm
[9]; [LAE] 0.1 %
  Surface Energy: 14 dyn/cm
[9]; [LAE] 1 %
  Surface Energy: 12 dyn/cm
[9]; lowest level, without LAE 23 dyn/cm
  Surface energy, lowest level in the presence of LAE: 11.5 dyn/cm
[10]
  M.I.C.: 32 ppm
[11]
  M.I.C.: 128 ppm
[12]
  M.I.C.: 32 ppm
[13]
  M.I.C.: 64 ppm
[14]
  M.I.C.: 20 ppm
[15]
  M.I.C.: 64 ppm
[16]
  M.I.C.: 32 ppm
[17]
  M.I.C.: 16 ppm
[18]
  M.I.C.: 128 ppm
[19]
  M.I.C.: 32 ppm
[20]
  log10 of CFU in biofilm: 6.1 log10 of CFU
[21]
  M.I.C.: 16 ppm
[22]
  log10 of CFU in biofilm: 2.5 log10 of CFU
[23]
  log10 of CFU in biofilm: 5.0 log10 of CFU
[24]
  M.I.C.: 32 ppm
[25]
  M.I.C.: 32 ppm
[26]
  M.I.C.: 10 ppm
[27]
  M.I.C.: 16 ppm
[28]
  M.I.C.: 64 ppm
[29]
  M.I.C.: 16 ppm
[30]; Day 0, placebo 6
  intraoral pH after 10% sucrose rinse: 6
[30]; Day 3, placebo 4.3
  intraoral pH after 10% sucrose rinse: 5.3
[30]; Day 7, placebo 4.3
  intraoral pH after 10% sucrose rinse: 5.2
[30]; maintained for 3 and 7 days of continuous monitoring, 0.16% LAE rinse, placebo 4.3±0.2, danger zone below pH 5
  pH of the tooth interface after 10% sucrose rinse: 5.4±0.3
[31]; human beings
  tolerance and toxicity in practical use: well tolerated and to display a very low toxicity to human beings
[31]; toxicological studies, animals and humans
  toxicity: completely harmless to animals and humans
[32]
  log10 of CFU in biofilm: 2.1 log10 of CFU
[33]; 16.5 h, After 1 dip, control 7.2
  log10 of CFU, biofilm re-growth: 3.5 log10 of CFU
[33]; 16.5 h, Before 1 dip, control 7.1
  log10 of CFU, biofilm re-growth: 7.1 log10 of CFU
[33]; 24.5 h, After 3 dip, control 7.4
  log10 of CFU, biofilm re-growth: 2.2 log10 of CFU
[33]; 24.5 h, Before 3 dip, control 8.1
  log10 of CFU, biofilm re-growth: 1.4 log10 of CFU
[33]; 40.5 h, After 4 dip, control 8.1
  log10 of CFU, biofilm re-growth: 1.2 log10 of CFU
[33]; 40.5 h, Before 4 dip, control 8.1
  log10 of CFU, biofilm re-growth: 5.9 log10 of CFU
[33]; 48.5 h, After 6 dip, control 8.4
  log10 of CFU, biofilm re-growth: 1.2 log10 of CFU
[33]; 48.5 h, Before 6 dip, control 8.5
  log10 of CFU, biofilm re-growth: 3.2 log10 of CFU
[33]; 64.5 h, Endpoint, control 9.0
  log10 of CFU, biofilm re-growth: 4.3 log10 of CFU
[34]
  log10 of CFU in biofilm: 2.1 log10 of CFU
[35]
  absorption and metabolism: fast absorption and metabolisation into naturally-occurring amino acids and the fatty acid lauric acid
[36]
  M.I.C.: 32 ppm
[37]
  M.I.C.: 16 ppm
[38]
  M.I.C.: 32 ppm
[39]
  M.I.C.: 16 ppm
[40]
  M.I.C.: 16 ppm
[41]
  M.I.C.: 128 ppm
[42]
  M.I.C.: 32 ppm
